# Patent publication US4654349A, “Anti-allergic methods using pyrazolo(1,5-A)pyridines” (Kyorin Pharmaceutical Co., Ltd., priority 1983, dated 1987)
# How the values were obtained:
# SRS-A release = experiment: Inhibitory effect on SRS-A release (chopped lung fragments of sensitized guinea pigs upon antigen challenge, bioassayed on isolated guinea pig ileum); type: cell-based; details: Cavia porcellus; concentration of test compound required to produce a 50% inhibition of SRS-A release; preincubated with lung fragments prior to antigen challenge
# Description: The inhibitory effect of the compounds of this invention on SRS-A release was determined according to the method of Orange and Moors [J. Immunol., 116, 392 (1976)]. SRS-A released from chopped lung fragments of sensitized guinea pigs upon antigen challenge was bioassayed on isolate guinea pig ileum according to the method of Brocklehurst [J. Physiol., 151, 416 (1960)]. Test compounds were preincubated with lung fragments prior to antigen challenge.
# 5-Lipoxygenase = target: T1, 5-Lipoxygenase (Cavia porcellus, UniProt A0A286X958); experiment: Effect on metabolism of exogenous arachidonic acid in A23187-stimulated guinea pig peritoneal neutrophils: 5-lipoxygenase product; type: cell-based; details: read-out: Inhibition percent, 5-Lipoxygenase
# T1 construct: using guinea pig peritoneal neutrophils stimulated with calcium ionophore A23187; endogenous in cells; host or cells: guinea pig peritoneal neutrophils
# T1 sequence (A0A286X958 1-674): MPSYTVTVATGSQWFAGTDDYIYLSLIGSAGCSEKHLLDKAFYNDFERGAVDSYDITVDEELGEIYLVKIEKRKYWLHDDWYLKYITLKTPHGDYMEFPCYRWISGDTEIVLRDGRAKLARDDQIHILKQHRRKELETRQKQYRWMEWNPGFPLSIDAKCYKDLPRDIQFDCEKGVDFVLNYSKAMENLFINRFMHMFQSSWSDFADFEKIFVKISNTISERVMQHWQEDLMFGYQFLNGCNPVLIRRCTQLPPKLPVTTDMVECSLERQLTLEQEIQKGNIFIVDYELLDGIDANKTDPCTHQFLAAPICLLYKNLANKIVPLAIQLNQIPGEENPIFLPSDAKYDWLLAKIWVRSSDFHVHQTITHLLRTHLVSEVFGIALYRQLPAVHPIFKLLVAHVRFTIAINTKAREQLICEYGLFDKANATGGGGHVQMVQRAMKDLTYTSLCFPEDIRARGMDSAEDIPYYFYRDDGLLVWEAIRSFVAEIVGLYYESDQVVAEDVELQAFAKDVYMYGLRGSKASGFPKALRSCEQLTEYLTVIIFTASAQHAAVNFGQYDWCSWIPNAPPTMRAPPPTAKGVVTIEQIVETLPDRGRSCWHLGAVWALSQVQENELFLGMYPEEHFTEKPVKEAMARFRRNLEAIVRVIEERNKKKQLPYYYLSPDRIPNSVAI
# Description: (§1) The effect of the compounds of this invention on the metabolism of exogenous arachidonic acid-1-^14 C was determined essentially according to the method of Harvey and Osborne [J. Pharmacol. Methods 9, 147 (1983)] using guinea pig peritoneal neutrophils stimulated with calcium ionophore A23187. With this procedure, 5-hydroxyeicosatetraenoic acid (a 5-lipoxygenase product) and 12-hydroxy-5,8,10-heptadecatrienoic acid (a cyclooxygenase product) were produced by neutrophils as major metabolites, allowing simultaneous evaluation of the drug effect on both pathways of arachidonic acid metabolism.
# Cyclooxygenase = experiment: Effect on metabolism of exogenous arachidonic acid in A23187-stimulated guinea pig peritoneal neutrophils: cyclooxygenase product; type: cell-based
# Description: as §1
# [1] = must be insufflated as a powder; cited from earlier work
SMILES,IC50 (SRS-A release) [µg/mL],inhibition at 0.1 µM (5-Lipoxygenase) [%],"Inhibition percent, Cyclooxygenase (Cyclooxygenase; 0.1 μM) [%]",other results
"CCc1ccc2c(O)cnn2c1 [compound 1, 6-Ethyl-3-hydroxypyrazolo[1,5-a]pyridine]",0.55,,,
CC(C)c1nn2ccccc2c1O [compound 2],1.4,,,
Cc1cccc2c(O)c(C(C)C)nn12 [compound 3],0.63,,,
"CCc1ccc2c(O)c(C(C)C)nn2c1 [compound 4, 6-Ethyl-3-hydroxy-2-isopropylpyraxolo[1,5-a]pyridine]",3.5,,,
CC(C)Cc1nn2ccccc2c1O [compound 5],1.8,20.3,0,"inhibition at 1 µM (5-Lipoxygenase): 86.6%; Inhibition percent, Cyclooxygenase (Cyclooxygenase; 1.0 μM): 0%"
"Oc1c(-c2ccc(F)cc2)nn2ccccc12 [compound 6, 2-p-Fluorophenyl-3-hydroxypyrazolo[1,5-a]pyridine]",2.4,,,
"CCC(=O)Oc1cnn2cc(CC)ccc12 [compound 7, 6-Ethyl-3-propionyloxypyrazolo[1,5-a]pridine]",1,62,0,"inhibition at 0.3 µM (5-Lipoxygenase): 84%; Inhibition percent, Cyclooxygenase (Cyclooxygenase; 0.3 μM): 0%"
Cc1nn2ccccc2c1OC(=O)C(C)C [compound 8],1.7,,,
CCc1nn2ccccc2c1OC(C)=O [compound 9],1,35.1,0,"inhibition at 0.3 µM (5-Lipoxygenase): 61.7%; Inhibition percent, Cyclooxygenase (Cyclooxygenase; 0.3 μM): 0%"
CCCc1nn2ccccc2c1OC(C)=O [compound 10],1.7,20.6,0,"inhibition at 0.3 µM (5-Lipoxygenase): 80.2%; Inhibition percent, Cyclooxygenase (Cyclooxygenase; 0.3 μM): 0%"
CC(=O)Oc1c(C(C)C)nn2ccccc12 [compound 11],0.7,,,
CCC(=O)Oc1c(C(C)C)nn2ccccc12 [compound 12],0.52,53.2,0,
CC(C)C(=O)Oc1c(C(C)C)nn2ccccc12 [compound 13],0.88,,,
Cc1cccc2c(OC(=O)C(C)C)c(C(C)C)nn12 [compound 14],0.53,,,
"CCc1ccc2c(OC(=O)C(C)C)c(C(C)C)nn2c1 [compound 15, 6-Ethyl-3-isobutyryloxy-2-isopropylpyrazolo[1,5-a]pyridine]",1.2,,,
CC(C)CC(=O)Oc1c(CC(C)C)nn2ccccc12 [compound 16],1.9,16.9,0,"inhibition at 0.3 µM (5-Lipoxygenase): 82.1%; Inhibition percent, Cyclooxygenase (Cyclooxygenase; 0.3 μM): 0%"
"CCOC(=O)Oc1c(C(C)C)nn2cc(CC)ccc12 [compound 17, 3-Ethoxycarbonyloxy-6-ethyl-2-isopropylpyrazolo[1,5-a]pyridine]",1.5,,,
CC(=O)Oc1c(-c2ccc(F)cc2)nn2ccccc12 [compound 20],2.4,,,"inhibition at 1 µM (5-Lipoxygenase): 83.7%; Inhibition percent, Cyclooxygenase (Cyclooxygenase; 1.0 μM): 0%"
O=C(O)c1cc(=O)c2c(OCC(O)COc3cccc4oc(C(=O)O)cc(=O)c34)cccc2o1 [disodium cromoglycate],,,,oral activity (in words) [1]: orally inactive
"O=C1CCN(c2ccccc2)N1 [phenidone, 1phenyl-3-pyrazolidone, reference compound]",6.3,,,"inhibition at 0.3 µM (5-Lipoxygenase): 22%; inhibition at 1 µM (5-Lipoxygenase): 60%; inhibition at 3 µM (5-Lipoxygenase; 3.0 μM): 89%; inhibition at 30 µM (5-Lipoxygenase; 30.0 μM): 95.5%; Inhibition percent, Cyclooxygenase (Cyclooxygenase; 0.3 μM): 0%; Inhibition percent, Cyclooxygenase (Cyclooxygenase; 1.0 μM): 0%; Inhibition percent, Cyclooxygenase (Cyclooxygenase; 3.0 μM): 0%; Inhibition percent, Cyclooxygenase (Cyclooxygenase; 30.0 μM): 58.2%"
